Laboratory results: patent US8221997B2, “Microorganism and method for producing carotenoid using the same” (Tosoh Corporation, priority 2005, dated 2012)

System: Paracoccus sp. strain TSN18E7
Test: Evaluation of growth ability against metabolic analogue β-ionone (colony formation on plate culture medium)
Assay type: cell-based
Conditions: plate culture medium of Table 2 with β-ionone in DMSO at final 0.01, 1, 2, 5 and 10 mM; 5 days at 25° C.; colonies visually counted
Experimental: bacterium Paracoccus sp. strain TSN18E7 was inoculated in 5 mL of liquid medium shown in Table 1, and cultured for one (1) day at 25° C. under shaking and 150 rpm. The culture solution was diluted in a culture medium shown in Table 1, and spread on a plate culture medium having a composition shown in Table 2 supplemented with β-ionone (Aldrich) dissolved in dimethylsulfoxide (DMSO). β-ionone was supplemented at final concentrations of 0.01, 1, 2, 5 and 10 mM. Then the plate culture medium on which strain TSN18E7 was spread was cultured for 5 days at 25° C. Appearing colonies were visually counted and evaluated for growth ability of strain TSN18E7 for each concentration of β-ionone. The strain TSN18E7 inhibited growth in the presence of β-ionone of 1 mM or more, and formation of colony was not observed. We concluded that for separation of β-ionone resistant strain, suitable β-ionone concentration in culture is 1 mM in final concentration.

CC(=O)/C=C/C1=C(C)CCCC1(C)C [β-ionone]
β-ionone concentration at which growth of the strain is inhibited and formation of colony is not observed: ≥ 1 mM
